The results in this text go back to US11034839B2, “Compounds, linked with haptens, for the detection of senescent cells” (THE UNIVERSITY OF MANCHESTER, priority 2016, dated 2021).

Each structure is given as a SMILES string. “Also recorded” adds a separate entry of the source.

The subject of one assay is senescent cells. Kind of assay: Flow cytometry analysis for detection of senescent cells in cell culture. It is filed as cell-based. The conditions noted are these: HIC assay adapted to flow cytometry, FIG. 10. The protocol:
In inventive example 7 the derivative LG13 was used to detect lipofuscin rich cells in cell aspirations or cell cultures by flow cytometry analysis.
• 1. Cells harvested from culture are fixed in EtOH 70% at 4° C. • 2. Centrifuge at 1200 rpm for 5 min at RT. • 3. Wash ×1 in 5 ml PBS at RT. • 4. Centrifuge at 1200 rpm for 5 min at RT. • 5. Incubate in 0.1% Triton X/PBS for 15 min at RT. • 6. Centrifuge at 1200 rpm for 5 min at RT. • 7. Wash ×1 EtOH 50% for 5 min at RT • 8. Centrifuge at 1200 rpm for 5 min at RT. • 9. Wash ×1 EtOH 70% for 5 min at RT. • 10. Centrifuge at 1200 rpm for 5 min at RT. • 11. Cover cell pellet with compound LG13 and incubate for 8 min at RT. • 12. Centrifuge at 1200 rpm for 5 min at RT. • 13. Wash with EtOH 50% and centrifuge at 1200 rpm for 5 min at RT, repeat ×3. • 14. Wash ×1 in PBS. • 15. Centrifuge at 1200 rpm for 5 min at RT. • 16. Incubate with the primary anti-biotin antibody diluted 1:400 in PBS ([Hyb-8] ab201341, Abcam) for 60 min at 37° C. • 17. Wash ×1 with PBS. • 18. Centrifuge at 1200 rpm for 5 min at RT. • 19. Incubate with secondary antibody, goat anti-mouse 568 Alexa Fluor conjugated, diluted 1:100 in PBS [Thermo Fisher Scientific (Cat no: A-11004)] for 20-30 min in dark and on ice. • 20. Wash ×1 with PBS. • 21. Centrifuge at 1200 rpm for 5 min at RT.
A general note: Flow cytometry measures light scatter and fluorescence of single cells or particles in a stream.

Another assay relates to lipofuscin. Kind of assay: Immunofluorescence staining / lipofuscin autofluorescence control. It is filed as cell-based. The note with it: fluorescence microscopy, FIG. 9. The protocol:
In inventive example 6 the derivative LG13 was used to detect lipofuscin rich cells in cell spreads from cell culture by immunofluorescence staining.
Immunofluorescence staining protocol cellsor ounted on coverslips • 1. Wash ×1 in TBS for 5 min at RT. • 2. Wash ×1 in EtOH 50% for 5 min at RT. • 3. Wash ×1 EtOH 70% for 5 min at RT. • 4. Incubate with the compound (LG13) at RT. A drop of freshly prepared compound (LG13) is placed on a clean slide with the use of a syringe that carrying a 2 mm filter (see also FIG. 1 from Evangelou & Gorgoulis, 2016). Then the cover-slip with the cells is turned down (using thin edged forceps) on the slide and attached on the dye drop in a way that the material faces down the drop on the slide (All incubations were performed in chambers (cover slips) and coplin jars (glass slides) to avoid exsiccation of the material), (see also FIG. 1 from Evangelou & Gorgoulis, 2016). • 5. The staining reaction is monitored under the light microscope until detection of the signal (average time 5-8 min). • 6. Wash ×2 in EtOH 50%. • 7. Repeat washing ×2 in fresh EtOH 50%. • 8. Wash ×2 in TBS for 30 sec and ×1 for 5 min at RT. • 9. Incubate with 0.5% Triton X/TBS for 3 min at RT. • 10. Wash ×1 in TBS for 5 min at RT. • 11. […] Observe under the fluorescence microscope

Assay [1] deals with senescent cells in induced Saos2-p21 cells and irradiated human diploid lung fibroblasts (DLFs). Nature of the assay: Streptavidin-HRP/DAB labeling of cell spreads. The format is cell-based. The note with it: cell spreads on cover slips, panels 6ai and 6bi. How it is done:
In inventive example 3, the derivative […] was used to detect senescent cells in cell spreads using streptavidin-horse radish peroxidase (HRP)/DAB labeling.
Induced and non-induced Saos2-p21^WAF1/Cip1 […] cells as well as human lung fibroblasts (DLFs) non- and y-irradiated were grown on cover slips and collected before and after the mentioned respective treatments for induction of senescence. Cover slips were treated as follows: • a. Fixation in ice-cold ethanol or methanol for 4 min. • b. Blocking of endogenous peroxidase activity with 3% H2O2 for 10 min. • c. Quick wash in 50% (v/v) ethanol. • d. Application of LG13 dye, diluted in ethanol and filtered, on cells for 10 min. • e. Quick wash in 50% (v/v) ethanol. • f. Transfer and wash in TBS or PBS solution. • g. Incubation in streptavidin-HRP (horse radish peroxidase) conjugated (dilution 1/200), for ½ hr at room temperature. • h. Quick wash in TBS or PBS solution. • i. Staining with 3,3′-Diaminobenzidine (DAB) solution (dilution 1/300 in TBS or PBS) for 1 min at room temperature. • j. Counterstain with Nuclear Fast Red, followed by mounting with glycerol and sealing with a cover slip. • k. Microscopy observation.

The test system of assay [2] is HeLa cancer cells and near normal Li-Fraumeni fibroblasts. Nature of the assay: False-positive studies (cell confluency, serum starvation). The format is cell-based, human. From the text: The in vitro models comprised seven cellular systems. […] The same cellular system was used at early passages that underwent SIPS upon y-irradiation and was compared in relation to non-irradiated counterparts. Another set of models comprised two inducible Saos2 Tet-ON osteosarcoma cell lines carrying p53 and p21^WAF1/Cip1, respectively, two well established effectors of senescence (Georgakopoulou et al., 2013; Galanos et al., 2016). Finally, the U2OS-E2F1 ER, U205-Cdt1 Tet-ON and HBECs-Cdc6 Tet-ON inducible systems that undergo SIPS due to oncogenic stress signals were also utilized (Petrakis et al., 2016; Liontos et al., 2007; Liontos et al., 2009). Parental cell lines were obtained either directly from ATCC or from collaborating laboratories that generated them. In addition, the human cancer cell line HeLa and near normal Li-Fraumeni fibroblasts (Galanos et al., 2016) were also employed as control cell lines for the specificity of staining of the SBB compounds.

Take `CC1(COC(=O)CCCC[C@H]2SC[C@H]3NC(=O)N[C@H]32)Nc2cccc3c(/N=N/c4ccc(/N=N/c5ccccc5)c5ccccc45)ccc(c23)N1` (stereo partly drawn) [LG13, (2-methyl-6-((E)-(4-((E)-phenyldiazenyl)naphthalen-1-yl)diazenyl)-2,3-dihydro-1H-perimidin-2-yl)methyl 5-((3aR,4R,6aS)-2-oxohexahydro-1H-thieno[3,4-d]imidazol-4-yl)pentanoate]: the “detection of senescent cells by flow cytometry” value in the assay on senescent cells is on record as “detects robustly senescent cells”. Moreover, in the assay with lipofuscin, the “effect of staining on lipofuscin autofluorescence” value was “quenched; also recorded: “masks” the autofluorescence ability of lipofuscin”. Further, in assay [1], the “colour of senescent cells after streptavidin-HRP/DAB detection” value was “clear dark-brown color”. Moreover, the “staining under cell confluency” value in assay [2] (HeLa and Li-Fraumeni fibroblasts, FIG. 17) was “Negative”. Also, the “staining of serum starved HeLa cells after formalin fixing and paraffin embedding” value in assay [2] (cell block, FIG. 18) is “negative”. In addition, the “false-positive staining due to serum starvation and cell confluency” value in assay [2] (compared with SA-b-gal, FIGS. 17 and 18) was “deprived of the false-positive staining disadvantages”. Further, the “staining after serum starvation” value in assay [2] (in comparison to SA-β-gal that gave positive signal, FIG. 18) is on record as “Negative”.
